According to US20170173011A1, “METHODS OF TREATING A BRUTON'S TYROSINE KINASE DISEASE OR DISORDER” (Celgene Avilomics Research, Inc., priority 2014, published 2017):

Experiments:
NZBxNZW F1 mice = conditions: literature; cited from earlier work
B6.sle1 mouse SLE model = conditions: literature (Hutcheson et al.); reduced anti histone, anti ssDNA, kidney lymphocytes and renal damage; cited from earlier work
[1] = test system: NZBxNZW F1 mouse SLE model; experiment: anti-dsDNA autoantibody quantitation by ELISA in serum, NZBxNZW F1 mouse SLE model; assay type: in vivo
Protocol: (§1) Compound 1 besylate was tested in the NZBxNZW Fl mouse SLE model. Treatment efficacy of Compound 1 besylate in this model was compared with cyclophosphamide, and a vehicle control. Principal end measures were autoantibodies against double stranded DNA (dsDNA) and protein in the urine.
Female NZBxNZW FI mice were housed in filter-top Nalgene cages, maintained on a 12-hour light/12-hour dark cycle with a room temperature of 70° F.+/−4° F. Mice were allowed to acclimate to the laboratory environment for approximately 5-7 days to ascertain their continued good health. Irradiated laboratory rodent chow and autoclaved water were supplied ad libitum.
Eighty NZBxNZW F1 female mice ˜12 weeks in age were obtained from Jackson Laboratory and were acclimatized for one week. After the acclimatization period was complete, each mouse that was successfully acclimatized was ear tagged and body weight recorded.
An initial bleed was performed prior to treatment initiation and serum prepared from the blood sampled. Serum samples were stored at −80° C. Following treatment initiation, blood was collected once every two weeks during the in-life phase for subsequent serum preparation.
(§2) Treatment was administered when the mice reached ˜20 weeks of age as follows:
(§3) Proteinuria: Urine was tested once every two weeks when the animals reached ˜13 weeks of age. Urine analysis was preformed midweek at approximately the same time of the day. Weekly urine analysis commenced when the animals reached the age of ˜18 weeks. Proteinuria levels were evaluated using Albustix urine strips. Serum was collected via collection of blood from tail bleeds when animals reached 13 weeks in age, then prior to initiating the treatment and thereafter twice a month.
Results. Individual autoantibody development in NZBxNZW Fl mice over time is depicted in FIG. 1A. Serum samples were collected from vehicle treated mice at the times indicated and an anti-dsDNA quantitation by ELISA performed. During the course of measurement from 18 weeks of age to 36 weeks of age, six (6) out of ten (10) mice developed autoantibodies against dsDNA greater than 400 KU/ml during the course of disease development and eight out of ten developed dsDNA antibodies greater than 200 kU/ml.

[2] = test system: NZBxNZW F1 mouse SLE model; experiment: urine protein (proteinuria, Albustix strips) in NZBxNZW F1 mouse SLE model; assay type: in vivo
Protocol: as §1
Urine analysis was initiated when the animals reached 13-14 weeks of age. Initially urine analysis was performed once in two weeks. When the animals reached 18-19 weeks of age, weekly urine analysis for proteinuria levels was performed using Albustix® Reagent strips for Urinalysis (Bayer, Inc). Results were scored on a 0-4 scale using the following criteria:
When the mice reached 19 weeks of age, all animals were evaluated with respect to their proteinuria scores. Based on that evaluation, […] mice were selected and assigned to 6 groups of 10 mice each and one group of 5 mice. The mice were assigned such that the distributions of proteinuria scores among all groups were as uniform as possible.
as §2, §3

In the case of O=P1(N(CCCl)CCCl)NCCCO1 (centres unmarked) [Cyclophophamide, Cyclophosphamide], the “effect on lupus nephritis / SLE in NZBxNZW F1 mice” value (shortened to “effect on lupus nephritis / SLE”) (NZBxNZW F1 mice) is listed as “inhibit lupus nephritis”.
In the case of N#CN1CCCC(n2nc(-c3ccc(Oc4ccc(F)cc4F)cc3)c(C(N)=O)c2N)C1 (centres unmarked) [PF-06250112], the “effect on lupus nephritis / SLE” value (NZBxNZW F1 mice) is listed as “efficacious”.
In the case of C=CC(=O)N1CCC[C@@H](n2nc(-c3ccc(Oc4ccccc4)cc3)c3c(N)ncnc32)C1 [PCI 32765/Ibrutinib], the “efficacy in B6.sle1 mouse SLE model” value (B6.sle1 mouse SLE model) is listed as “efficacious”.
For C=CC(=O)Nc1cccc(Nc2nc(Nc3ccc(OCCOC)cc3)ncc2F)c1 [Compound 1 besylate, N-(3-(5-fluoro-2-(4-(2-methoxyethoxy)phenylamino)pyrimidin-4-ylamino)phenyl)acrylamide besylate], the “number of treated mice that developed dsDNA antibodies over 400 kU/ml” value ([1]; 50 mg/kg BID PO for 12 weeks, vehicle: six (6) of ten (10)) was 2 of ten (10) treated mice, the “number of mice with nearly complete suppression of anti-dsDNA development” value ([1]; 50 mg/kg BID PO, of ten treated mice) was 6 mice and the “anti-dsDNA autoantibody development (FIG. 1C)” value ([1]; 50 mg/kg BID PO, weeks 29 through 33) was “reduced anti-dsDNA autoantibody development”. The “number of mice with blunted anti-dsDNA responses at the end of the study” value ([1]; 50 mg/kg BID PO, weeks 35 and 36, of ten treated mice) was 2 mice, the “protein levels measured in the urine relative to vehicle (FIG. 2)” value ([2]; 50 mg/kg BID PO for 12 weeks) was “reduced protein levels” and the “protein levels measured in the urine relative to vehicle (FIG. 2)” value ([2]; 100 mg/kg QD PO for 12 weeks) was “reduced protein levels”. The “urine protein, dose dependence” value ([2]; across dose groups) was “dose-associated trend of reduced urine protein”.
In the case of CN1CCN(c2ccc(Nc3cc(-c4cccc(-n5ccc6cc(C7CC7)cc(F)c6c5=O)c4CO)cn(C)c3=O)nc2)CC1 [RN486], the “effect on lupus nephritis / SLE” value (NZBxNZW F1 mice) is given as “efficacious”.
